For this assay, the system named is C. trachomatis (serovar K). Description: Microsusceptibility: chlamydial inclusion counts in infected McCoy cells. The settings on record: for change in MIC50 with length of treatment: 24 vs 48 hrs incubation, treated immediately following infection; for MIC50: Chlamydia trachomatis; for sensitivity (decrease in inclusion number with increasing dose): drug added 24 or 48 hours post infection, 24 hours in presence of drug. In kind it is cell-based. The method, then: FIG. 19. […] McCoy cells were infected with C trachomatis serovar K at MOI=1. […] Drugs were administered either encapsulated in nanoparticles (top panel) or dissolved in growth medium (bottom panel). Chlamydial viability was determined by counting the number of inclusions/well.
Cells and growth of Chlamydia. McCoy cells were seeded onto 96-well microtitre plates at a concentration of 2×10^5 cells per well and allowed to adhere overnight at 37° C. and 5% CO2 in Eagles MEM supplemented with 10% FBS and […] Glutamine. The following day, the cells were inoculated with C. trachomatis (UW-31, serovar K) at 10^4 IFU/well and centrifuged at 2500 rpm for 1 hr at room temperature, followed by incubation at 37° C. for 1 hr. The inoculum was then aspirated and replaced with the appropriate two fold dilution of free drug or encapsulated nanoparticles prepared in antibiotic-free growth media containing 0.06% glucose and 1 μg/ml cyclohexamide. The cells were incubated in the presence of drug for 24 or 48 hrs post infection and then fixed with 100% MeOH. Chlamydial inclusions were detected by immunofluorescence using BioRad Pathfinder® according to the manufacturer's instructions and the plates subsequently stored protected from light at 4° C.
McCoy cells were seeded onto 96-well microtiter plates and then infected the next day with 10^4 IFU/well C. trachomatis (serovar K).
McCoy cells were seeded onto 96-well microtiter plates and then infected the next day with 10^4 IFU/well C. trachomatis (serovar K). […] The mean inclusion number was plotted as a function of concentration.
McCoy cells (2×10^5/well) were seeded onto 96-well microtitre plates and then infected the next day with 10^4 IFU/well C. trachomatis (serovar K). […] The cells were incubated for 24 hours in the presence of drug and then fixed. Based on previous experiments we refined the concentrations ranges for each of the two free drugs and encapsulated nanoparticles.
McCoy cells (2×10^5/well) were seeded onto 96-well microtitre plates and then infected the next day with 10^4 IFU/well C. trachomatis (serovar K). […] The cells were incubated for 24 hours in the presence of drug and then fixed. […] We, therefore, extended the concentration ranges for the two drugs.
McCoy cells (2×10^5/well) were seeded onto 96-well microtitre plates and then infected the next day with 10^4 IFU/well C. trachomatis (serovar K). […] The cells were incubated for 24 hours or 48 hours in the presence of drug and then fixed.
Free and nanoparticle-encapsulated antibiotics added at either t0 (time of infection) or after 24 hr of infection (t24), were compared along with blank nanoparticles as controls.

Where [1] appears, read: 24 h, added immediately following infection, 24 hours in the presence of drug (Example 9), read-out: MIC50.
Setting [2] is: treated individually, MOI=1, drug added at overlay, nanoparticles not conjugated to folic acid (Example 16), read-out: MIC50.

In brackets after ≈: the same amount, converted by molar mass. Read-outs that look alike come from different tables or passages of the source.

As to `CC[C@H]1OC(=O)[C@H](C)[C@@H](O[C@H]2C[C@@](C)(OC)[C@@H](O)[C@H](C)O2)[C@H](C)[C@@H](O[C@@H]2O[C@H](C)C[C@H](N(C)C)[C@H]2O)[C@](C)(O)C[C@@H](C)CN(C)[C@H](C)[C@@H](O)[C@]1(C)O` [azithromycin], the “change in MIC50 with length of treatment” value is “no significant change in MIC50” and the “sensitivity (decrease in inclusion number with increasing dose)” value is “marked insensitivity”. Further, the MIC50 under setting [1] turned out to be 0.04 µg/mL. Moreover, the MIC50 (in the presence of 0.004 μg/ml rifampin (Example 16), read-out: MIC50 of azithromycin) was found to be 0.016 µg/mL. Also, the MIC50 under setting [2] was 0.032 µg/mL (≈ 0.0427 µM).
On to `CO[C@H]1/C=C/O[C@@]2(C)Oc3c(C)c(O)c4c(O)c(c(/C=N/N5CCN(C)CC5)c(O)c4c3C2=O)NC(=O)/C(C)=C\C=C\[C@H](C)[C@H](O)[C@@H](C)[C@@H](O)[C@@H](C)[C@H](OC(C)=O)[C@@H]1C` [rifampin], for which the “change in MIC50 with length of treatment” value was “no significant change in MIC50” and the “sensitivity (decrease in inclusion number with increasing dose)” value is “marked insensitivity”. Besides, the MIC50 under setting [1] came out at 0.005 µg/mL. Also, the MIC50 (24 h, drug added at 24 hpi and left on for 24 hours, read-out: MIC50) is more than 0.08 µg/mL. The MIC50 (read-out: MIC50 of rifampin, in the presence of 0.016 μg/ml azithromycin (Example 16)) was 0.002 µg/mL. Further, the MIC50 under setting [2] turned out to be 0.008 µg/mL (≈ 0.00972 µM).

For the origin of these results see US8647673B2, “Nanoparticles for imaging and treating chlamydial infection” (Wayne State University, priority 2007, dated 2014).
